Each structure is given as a SMILES string.

As a reminder, the IC50 is the midpoint of a concentration-inhibition curve.

The test addresses T1, Full-length USP19 (Homo sapiens, UniProt O94966).
T1 construct: Full-length USP19 was purchased from Boston Biochem (E-576); purchased Boston Biochem E-576
T1 sequence (O94966 1-1318): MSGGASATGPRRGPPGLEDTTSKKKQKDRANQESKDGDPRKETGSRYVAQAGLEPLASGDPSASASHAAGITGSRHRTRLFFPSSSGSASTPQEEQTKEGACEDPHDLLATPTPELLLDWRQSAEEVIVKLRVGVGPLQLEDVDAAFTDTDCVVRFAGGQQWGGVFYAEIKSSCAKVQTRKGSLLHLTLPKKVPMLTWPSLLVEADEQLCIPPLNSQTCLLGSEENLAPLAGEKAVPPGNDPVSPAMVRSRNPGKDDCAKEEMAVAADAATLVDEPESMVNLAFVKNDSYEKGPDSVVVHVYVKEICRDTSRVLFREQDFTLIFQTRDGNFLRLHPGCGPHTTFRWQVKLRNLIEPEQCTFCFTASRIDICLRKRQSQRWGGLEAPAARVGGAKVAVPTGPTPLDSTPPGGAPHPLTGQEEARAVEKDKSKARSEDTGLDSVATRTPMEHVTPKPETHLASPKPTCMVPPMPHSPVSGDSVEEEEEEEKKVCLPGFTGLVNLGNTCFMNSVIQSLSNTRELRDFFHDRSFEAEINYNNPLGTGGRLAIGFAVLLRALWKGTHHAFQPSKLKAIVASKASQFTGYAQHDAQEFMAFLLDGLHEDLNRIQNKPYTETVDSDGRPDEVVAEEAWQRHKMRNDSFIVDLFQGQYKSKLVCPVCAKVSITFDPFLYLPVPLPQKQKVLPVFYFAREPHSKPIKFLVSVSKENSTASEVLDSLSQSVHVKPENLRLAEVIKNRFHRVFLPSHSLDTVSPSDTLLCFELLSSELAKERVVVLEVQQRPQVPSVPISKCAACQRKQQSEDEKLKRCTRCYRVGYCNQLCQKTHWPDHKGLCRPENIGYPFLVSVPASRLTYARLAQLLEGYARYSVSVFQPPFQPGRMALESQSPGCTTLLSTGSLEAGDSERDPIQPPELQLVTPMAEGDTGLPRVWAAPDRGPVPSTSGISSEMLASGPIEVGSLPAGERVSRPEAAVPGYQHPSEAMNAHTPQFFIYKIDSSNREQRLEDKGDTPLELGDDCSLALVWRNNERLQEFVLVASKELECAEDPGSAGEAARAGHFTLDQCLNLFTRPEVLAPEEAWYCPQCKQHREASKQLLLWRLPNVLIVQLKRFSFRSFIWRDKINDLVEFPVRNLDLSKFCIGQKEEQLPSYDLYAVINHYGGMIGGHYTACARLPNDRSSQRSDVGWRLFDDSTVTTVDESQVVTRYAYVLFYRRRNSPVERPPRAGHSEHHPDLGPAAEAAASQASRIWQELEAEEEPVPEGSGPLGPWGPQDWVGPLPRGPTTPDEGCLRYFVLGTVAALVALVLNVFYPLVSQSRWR
Nature of the test: USP19 fluorescence polarisation (FP) homogeneous assay with Ubiquitin-Lys-TAMRA substrate. It counts as biochemical. To be noted: 2.5 nM USP19, 30 min pre-incubation, average of at least two duplicate experiments. An outline of the steps:
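Full-length USP19 preincubated 30 min at RT with inhibitor (200 μM to 2 μM series, 8–18 points) before adding 500 nM Ubiquitin-Lys-TAMRA substrate.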
For orientation: In fluorescence polarisation assays a small probe gives low polarisation when free and higher when bound to something large.
Regarding `C[C@H](CC(F)(F)F)C(=O)N1CCC(O)(Cn2ccc3nc(N=S(C)(C)=O)ncc3c2=O)C2(CCCC2)C1` (stereo partly drawn) [Example 62, 2-((Dimethyl(oxo)-λ^6-sulfaneylidene)amino)-6-((10-hydroxy-7-((R)-4,4,4-trifluoro-2-methylbutanoyl)-7-azaspiro[4.5]decan-10-yl)methyl)pyrido[4,3-d]pyrimidin-5(6H)-one], the IC50 was 0.5 to 5 µM. The result for `N[C@H]1CCN(C(=O)N2CC[C@@](O)(Cn3cnc(-c4ccccc4)cc3=O)C3(CCCC3)C2)[C@H](c2ccccc2)C1` [Example 396, 3-(((S)-7-((2S,4S)-4-Amino-2-phenyl-piperidine-1-car-bonyl)-10-hydroxy-7-azaspiro[4.5]de-can-10-yl)meth-yl)-6-phenyl-pyrimidin-4(3H)-one] reads below 0.5 µM. The result for `C[C@H](CC1CCCCC1)C(=O)N1CCC(O)(Cn2c(=O)c3cncnc3n2C)C2(CCCC2)C1` (stereo partly drawn) [Example 174, 2-((7-((R)-3-Cyclohexyl-2-methylpropanoyl)-10-hydroxy-7-azaspiro[4.5]decan-10-yl)methyl)-1-methyl-1,2-dihydro-3H-pyrazolo[3,4-d]pyrimidin-3-one] reads 5 to 50 µM; that for `O=C(NCc1c(F)cccc1F)N1CC[C@@](O)(Cn2cnc(-c3ccccc3)cc2=O)C2(CCCC2)C1` [Example 302, (S)—N-(2,6-Difluorobenzyl)-10-hydroxy-10-((6-oxo-4-phenylpyrimidin-1(6H)-yl)methyl)-7-azaspiro[4.5]decane-7-carboxamide], below 0.5 µM; that for `C[C@H](CC1CCCCC1)C(=O)N1CCC(O)(Cn2cc(-c3ccccn3)ncc2=O)C(C)(C)C1` (stereo partly drawn) [Example 23, 1-((1-((R)-3-Cyclohexyl-2-methylpropanoyl)-4-hydroxy-3,3-dimethylpiperidin-4-yl)methyl)-5-(pyridin-2-yl)pyrazin-2(1H)-one], 5 to 50 µM.

Take `O=C1CN(c2ccccc2)CCN1CC1(O)CCN(C(=O)NCc2ccccc2)CC12CCCC2` (centres unmarked) [Example 109, N-Benzyl-10-hydroxy-10-((2-oxo-4-phenylpiperazin-1-yl)methyl)-7-azaspiro[4.5]decane-7-carboxamide]: the IC50 is below 0.5 µM. `O=C(N1CC[C@@](O)(Cn2cnc(-c3ccccc3F)cc2=O)C2(CCCC2)C1)N1CCNC[C@H]1c1cccc(F)c1` [Example 355, 6-(2-Fluorophenyl)-3-(((S)-7-((R)-2-(3-fluorophenyl)pipera-zine-1-carbonyl)-10-hydroxy-7-aza-spiro[4.5]decan-10-yl)methyl)pyrimidin-4(3H)-one]: the IC50 was below 0.5 µM.

Consider `O=C(N1CCC(O)(Cn2cnc(-c3ccccc3)cc2=O)C2(CCCC2)C1)N1CCCC1c1cccnc1` (centres unmarked) [Example 245, 3-((10-Hydroxy-7-(2-(pyridin-3-yl)pyrrolidine-1-carbonyl)-7-azaspiro[4.5]decan-10-yl)methyl)-6-phenylpyrimidin-4(3H)-one], for which the IC50 was 0.5 to 5 µM.

In the case of `O=C(N1CCC(O)(Cn2cnc(-c3ccccc3)cc2=O)C2(CCCC2)C1)N1CCOCC1CC1CC1` (centres unmarked) [Example 229, 3-((7-(3-(Cyclopropylmethyl)morpholine-4-carbonyl)-10-hydroxy-7-azaspiro[4.5]decan-10-yl)methyl)-6-phenylpyrimidin-4(3H)-one], the IC50 lay in the range of 5 to 50 µM. On to `COc1cc2ccn(CC3(O)CCN(C(=O)[C@H](C)CC(F)(F)F)CC34CCCC4)c(=O)c2cc1OC` (stereo partly drawn) [Example 140, 2-((10-Hydroxy-7-((R)-4,4,4-trifluoro-2-methylbutanoyl)-7-azaspiro[4.5]decan-10-yl)methyl)-6,7-dimethoxyisoquinolin-1(2H)-one], for which the IC50 lay in the range of 50 to 250 µM.

On to `C[C@H](CC(F)(F)F)C(=O)N1CCC(O)(Cn2cnc3nc(N4CCOCC4)ncc3c2=O)C2(CCCC2)C1` (stereo partly drawn) [Example 162, 3-((10-Hydroxy-7-((R)-4,4,4-trifluoro-2-methylbutanoyl)-7-azaspiro[4.5]decan-10-yl)methyl)-7-morpholinopyrimido[4,5-d]pyrimidin-4(3H)-one], for which the IC50 was in the range of 0.5 to 5 µM.

In the case of `Cc1cc(=O)n(C[C@]2(O)CCN(C(=O)N3CCNC[C@H]3c3ccccc3)CC23CCCC3)cn1` [Example 300, 3-(((S)-10-Hydroxy-7-((R)-2-phenylpiperazine-1-carbonyl)-7-azaspiro[4.5]decan-10-yl)methyl)-6-methylpyrimidin-4(3H)-one], the concentration for half-maximal inhibition (IC50) was below 0.5 µM.

For the compound `C[C@H](CC1CCCCC1)C(=O)N1CCC(O)(Cn2ccncc2=O)C2(CCCC2)C1` (stereo partly drawn) [Example 3, 1-((7-((R)-3-Cyclohexyl-2-methylpropanoyl)-10-hydroxy-7-azaspiro[4.5]decan-10-yl)methyl)pyrazin-2(1H)-one], the IC50 fell in the range of 0.5 to 5 µM. As to `COCC1COCCN1C(=O)N1CCC(O)(Cn2cnc(-c3ccccc3)cc2=O)C2(CCCC2)C1` (centres unmarked) [Example 231, 3-((10-Hydroxy-7-(3-(methoxymethyl)morpholine-4-carbonyl)-7-azaspiro[4.5]decan-10-yl)methyl)-6-phenylpyrimidin-4(3H)-one], the IC50 was 5 to 50 µM. For `O=C(N1CC[C@@](O)(Cn2cnc(-c3ccccc3OC(F)F)cc2=O)C2(CCCC2)C1)N1CCNC[C@H]1c1ccccc1` [Example 364, 6-(2-(Difluoro-methoxy)phenyl)-3-(((S)-10-hydroxy-7-((R)-2-phenylpiperazine-1-carbonyl)-7-aza-spiro[4.5]decan-10-yl)methyl)pyrimidin-4(3H)-one] the value was below 0.5 µM.

Turning to `Cc1ccccc1-c1cc(=O)n(C[C@]2(O)CCN(C(=O)N3CCNC[C@H]3c3ccccc3)CC23CCCC3)cn1` [Example 340, 3-(((S)-10-Hydroxy-7-((R)-2-phenylpiperazine-1-carbonyl)-7-azaspiro[4.5]decan-10-yl)methyl)-6-(o-tolyl)pyrimidin-4(3H)-one], the IC50 is below 0.5 µM. On to `Cc1cccc2c(=O)n(CC3(O)CCN(C(=O)[C@H](C)CC4CCCCC4)CC34CCCC4)cnc12` (stereo partly drawn) [Example 125, 3-((7-((R)-3-Cyclohexyl-2-methylpropanoyl)-10-hydroxy-7-azaspiro[4.5]decan-10-yl)methyl)-8-methylquinazolin-4(3H)-one], for which the IC50 lay in the range of 0.5 to 5 µM. Consider `O=C(N1CCC(O)(Cn2cnc(-c3ccccc3)cc2=O)C2(CCCC2)C1)N1CCCC1C(F)(F)F` (centres unmarked) [Example 206, 3-((10-Hydroxy-7-(2-(trifluoromethyl)pyrrolidine-1-carbonyl)-7-azaspiro[4.5]decan-10-yl)methyl)-6-phenylpyrimidin-4(3H)-one], for which the IC50 lay in the range of 0.5 to 5 µM.

As to `O=C(N1CCC(O)(Cn2cnc(-c3ccccc3)cc2=O)C2(CCCC2)C1)N1CCOCC12CCCCC2` (centres unmarked) [Example 261, 3-((10-Hydroxy-7-(4-oxa-1-azaspiro[5.5]undecane-1-carbonyl)-7-azaspiro[4.5]decan-10-yl)methyl)-6-phenylpyrimidin-4(3H)-one], the IC50 was in the range of 5 to 50 µM. For `C[C@H](CC1CCCCC1)C(=O)N1CCC(O)(Cn2cc(-c3cccnc3)ncc2=O)C2(CCCC2)C1` (stereo partly drawn) [Example 19, 1-((7-((R)-3-Cyclohexyl-2-methylpropanoyl)-10-hydroxy-7-azaspiro[4.5]decan-10-yl)methyl)-5-(pyridin-3-yl)pyrazin-2(1H)-one] the value was 0.5 to 5 µM. The result for `C[C@H](CC(F)(F)F)C(=O)N1CCC(O)(CN2C(=O)CC2c2ccccc2)C2(CCCC2)C1` (stereo partly drawn) [Example 101, 1-((10-Hydroxy-7-((R)-4,4,4-trifluoro-2-methylbutanoyl)-7-azaspiro[4.5]decan-10-yl)methyl)-4-phenylazetidin-2-one] reads 50 to 250 µM; that for `O=C(N1CC[C@@](O)(Cn2cnc(-c3ccccc3)cc2=O)C2(CCCC2)C1)N1CCNC[C@H]1c1ccccc1F` [Example 370, 3-(((10S)-7-(2-(2-Fluorophenyl)pipera-zine-1-carbonyl)-10-hydroxy-7-azaspiro[4.5]decan-10-yl)methyl)-6-phenylpyrimidin-4(3H)-one], below 0.5 µM. For `C[C@H](CC1CCCCC1)C(=O)N1CCC(O)(Cn2ccc3ccc(F)cc3c2=O)C2(CCCC2)C1` (stereo partly drawn) [Example 121, 2-((7-((R)-3-Cyclohexyl-2-methylpropanoyl)-10-hydroxy-7-azaspiro[4.5]decan-10-yl)methyl)-7-fluoroisoquinolin-1(2H)-one] the value was 0.5 to 5 µM.

(Values after patent US20220033397A1, “PHARMACEUTICAL COMPOUNDS AND THEIR USE AS INHIBITORS OF UBIQUITIN SPECIFIC PROTEASE 19 (USP19)” (ALMAC DISCOVERY LIMITED, priority 2018, published 2022).)
